Assay results: patent US6610710B2, “Phenylalanine derivatives” (Ajinomoto Co., Inc., priority 1999, dated 2003)

Each compound was assayed against T1, integrin α4β7 (RPMI-8866 cells) binding with recombinant human VCAM-1 (Homo sapiens, UniProt P13612+P26010) (assay: VCAM antagonistic activity (VCAM-1/α4β7 binding assay), RPMI-8866 cell adhesion). Details: recombinant human VCAM-1, 4 mM MnCl2, read-out: VCAM/α 4 β 7 antagonistic activity to integrin (IC50).
T1 construct: lymphoma cell strain RPMI-8866 of human B cells, known to express integrin α4β7; endogenous in cells; host or cells: RPMI-8866 (human B-cell lymphoma line)
T1 sequence (P13612 34-1032): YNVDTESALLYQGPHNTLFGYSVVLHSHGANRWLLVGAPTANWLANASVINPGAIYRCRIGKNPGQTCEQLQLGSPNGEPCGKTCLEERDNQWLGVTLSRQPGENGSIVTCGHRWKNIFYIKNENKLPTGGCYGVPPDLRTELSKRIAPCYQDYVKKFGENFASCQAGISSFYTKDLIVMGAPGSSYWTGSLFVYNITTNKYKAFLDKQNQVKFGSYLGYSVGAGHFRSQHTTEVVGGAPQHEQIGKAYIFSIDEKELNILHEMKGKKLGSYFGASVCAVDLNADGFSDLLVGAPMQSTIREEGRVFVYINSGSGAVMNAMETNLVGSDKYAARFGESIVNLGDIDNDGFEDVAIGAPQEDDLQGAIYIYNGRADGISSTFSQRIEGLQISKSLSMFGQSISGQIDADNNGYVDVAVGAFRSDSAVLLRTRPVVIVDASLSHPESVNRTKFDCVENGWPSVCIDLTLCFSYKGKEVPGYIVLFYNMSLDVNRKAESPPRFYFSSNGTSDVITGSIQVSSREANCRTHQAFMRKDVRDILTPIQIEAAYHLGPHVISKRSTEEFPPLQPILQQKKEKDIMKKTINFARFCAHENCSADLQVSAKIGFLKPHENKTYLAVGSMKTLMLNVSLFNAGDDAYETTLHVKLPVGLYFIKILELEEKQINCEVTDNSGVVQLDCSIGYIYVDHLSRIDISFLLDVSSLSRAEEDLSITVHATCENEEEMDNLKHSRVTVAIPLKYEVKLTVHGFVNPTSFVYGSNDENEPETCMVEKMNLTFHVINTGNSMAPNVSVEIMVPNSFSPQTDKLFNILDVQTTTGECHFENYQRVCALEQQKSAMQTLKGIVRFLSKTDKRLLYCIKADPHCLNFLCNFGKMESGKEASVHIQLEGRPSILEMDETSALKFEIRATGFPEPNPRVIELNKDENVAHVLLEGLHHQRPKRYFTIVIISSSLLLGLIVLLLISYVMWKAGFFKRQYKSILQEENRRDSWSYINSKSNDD
T1 sequence (P26010 20-798): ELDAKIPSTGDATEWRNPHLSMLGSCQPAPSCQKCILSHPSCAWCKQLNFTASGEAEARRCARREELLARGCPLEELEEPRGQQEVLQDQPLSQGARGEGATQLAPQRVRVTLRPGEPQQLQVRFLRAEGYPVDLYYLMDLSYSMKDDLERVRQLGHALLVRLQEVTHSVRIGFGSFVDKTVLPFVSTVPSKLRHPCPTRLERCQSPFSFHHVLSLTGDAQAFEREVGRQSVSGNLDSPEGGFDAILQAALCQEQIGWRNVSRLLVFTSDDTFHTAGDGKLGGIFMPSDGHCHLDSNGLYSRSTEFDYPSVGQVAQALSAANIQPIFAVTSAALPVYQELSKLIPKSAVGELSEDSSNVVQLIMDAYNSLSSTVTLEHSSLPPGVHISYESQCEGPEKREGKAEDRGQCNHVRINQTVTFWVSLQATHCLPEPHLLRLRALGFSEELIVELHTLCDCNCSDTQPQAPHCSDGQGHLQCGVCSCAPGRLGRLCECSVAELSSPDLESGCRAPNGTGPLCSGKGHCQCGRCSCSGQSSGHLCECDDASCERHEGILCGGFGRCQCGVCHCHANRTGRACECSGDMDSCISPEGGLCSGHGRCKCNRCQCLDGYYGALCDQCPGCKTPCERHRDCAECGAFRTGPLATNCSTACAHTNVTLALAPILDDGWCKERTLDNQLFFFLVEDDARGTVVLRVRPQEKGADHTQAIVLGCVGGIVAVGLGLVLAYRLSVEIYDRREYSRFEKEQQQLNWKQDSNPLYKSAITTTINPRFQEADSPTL
Assay type: cell-based
Description: (Test Example) VCAM Antagonistic Activity (VCAM-1/α4β7 Binding Assay):
The capacity of a test substance antagonistic to the binding of lymphoma cell strain RPMI-8866 of human B cells, known to express integrin α4β7, with VCAM-1 was determined.
100 μl/well of a solution (500 ng/ml ) of recombinant human VCAM-1 (R & D systems) diluted with buffer A (0.1 M NaHCO3, pwH 9.6) was added to a micro titer plate having 96 wells (Nunc Maxisorp). After the incubation at 4° C. overnight, unbound VCAM-1 was removed by once washing with PBS. After completion of the washing, a buffer (buffer B) obtained by diluting Block Ace® (Dainippon Pharmaceutical Co., Ltd.) with PBS to 1/4 concentration was added in an amount of 150 μl/well. After the incubation at room temperature for 1 hour, buffer B was removed and the plate was washed with PBS once.
RPMI-8866 cells were incubated in Dulbecco modified Eagle medium containing 10 μg/ml of Calcein-AM (Wako Pure Chemical Industries, Ltd.) (SIGMA, hereinafter referred to as “DMEM”) at 37° C. for 30 minutes to label them with fluorescence. The cells were again suspended in a binding buffer (DMEM containing 20 mM HEPES, 0.1% BSA) containing 4 mM of MnCl2.
50 μl of a test substance of various concentrations obtained by the dilution with the binding buffer was added to the plate. Immediately thereafter, 50 μl (final volume: 100 μl/well) of the fluorescent RPMI-8866 cells (4×10^6 cells/ml) were added thereto, and they were incubated at room temperature for 30 minutes. After the shaking on a plate shaker (IKA MTS-4) at 800 rpm for 30 seconds, the solution was immediately removed to remove the unbound cells. The fluorescence quantity of the bound cells remaining in the wells was determined with a fluorescent plate reader (Wallac 1420 ARVO multi-label counter) (filter excitation wave length: 485 nml, emission wave length: 535 nm). The fluorescent strength thus obtained is proportional to the number of RPMI-8866 cells bound to VCAM-1 and remaining on the plate. The binding rate of each test material in various concentrations was determined while the fluorescent strength of the test material-free well was determined to be 100%. The concentration IC50 for the 50% binding inhibition was calculated.

`O=C(O)[C@H](Cc1ccc(OCc2c(Cl)cccc2Cl)cc1)NC(=O)[C@H]1CC[C@H](C(=O)O)CC1` [Example 2, N-(Trans-4-carboxycyclohexane-1-carbonyl)-O-(2,6-dichlorobenzyl)-L-tyrosine] and `O=C(O)[C@H](Cc1ccc(OCc2c(Cl)cccc2Cl)cc1)NC(=O)[C@H]1CC[C@H](C(=O)NNc2ccccc2)CC1` [Example 3, N-(Trans-4-phenylhydrazinocarbonylcyclohexane-1-carbonyl)-O-(2,6-dichlorobenzyl)-L-tyrosine] cannot be ordered by IC50: no more than 200 nM for the first, no more than 200 nM for the second.

`O=C(O)[C@H](Cc1ccc(OCc2c(Cl)cccc2Cl)cc1)NC(=O)[C@H]1CC[C@H](C(=O)NNc2ccc(Br)cc2)CC1` [Example 4, N-[Trans-4-(4-bromophenylhydrazinocarbonyl)cyclohexane-1-carbonyl]-O-(2,6-dichlorobenzyl)-L-tyrosine] and `Cc1ccc(NNC(=O)[C@H]2CC[C@H](C(=O)N[C@@H](Cc3ccc(OCc4c(Cl)cccc4Cl)cc3)C(=O)O)CC2)cc1` [Example 34] cannot be ordered by IC50: 200 to 1000 nM for the first, no more than 200 nM for the second.

Compared with `O=C(O)[C@H](Cc1ccc(OCc2c(Cl)cccc2Cl)cc1)NC(=O)[C@H]1CC[C@H](C(=O)NCc2ccccc2)CC1` [Example 6], `COc1cccc(NNC(=O)[C@H]2CC[C@H](C(=O)N[C@@H](Cc3ccc(OCc4c(Cl)cccc4Cl)cc3)C(=O)O)CC2)c1` [Example 44] is lower in IC50: 1000 to 5000 nM for the first, no more than 200 nM for the second. The second is the more potent here.

`COc1ccc(NNC(=O)[C@H]2CC[C@H](C(=O)N[C@@H](Cc3ccc(OCc4c(Cl)cccc4Cl)cc3)C(=O)O)CC2)cc1` [Example 14] and `O=C(O)[C@H](Cc1ccc(OCc2c(Cl)cccc2Cl)cc1)NC(=O)[C@H]1CC[C@H](C(=O)NNc2ccc(OC(F)(F)F)cc2)CC1` [Example 35] cannot be ordered by IC50: no more than 200 nM for the first, no more than 200 nM for the second.

`O=C(Nc1ccc(C[C@H](NC(=O)[C@H]2CC[C@H](C(=O)O)CC2)C(=O)O)cc1)c1snnc1-c1ccccc1` [Example 45, N-(Trans-4-carboxycyclohexane-1-carbonyl)-4-{[(4-phenyl-1,2,3-thiadiazole-5-yl)carbonyl]amino}-L-phenylalanine] and `COc1ccc(NNC(=O)[C@H]2CC[C@H](C(=O)N[C@@H](Cc3ccc(NC(=O)c4snnc4-c4ccccc4)cc3)C(=O)O)CC2)cc1` [Example 46, N-[Trans-4-(4-methoxyphenylhydrazinocarbonyl)cyclohexane-1-carbonyl]-4-{[(4-phenyl-1,2,3-thiadiazole-5-yl)carbonyl]amino}-L-phenyl-alanine] cannot be ordered by IC50: no more than 200 nM for the first, no more than 200 nM for the second.

`COc1cccc(OC)c1-c1ccc(C[C@H](NC(=O)[C@H]2CC[C@H](C(=O)O)CC2)C(=O)O)cc1` [Example 50, N-(Trans-4-carboxycyclohexane-1-carbonyl)-4-(2,6-dimethoxyphenyl)-L-phenylalanine] and `COc1ccc(NNC(=O)[C@H]2CC[C@H](C(=O)N[C@@H](Cc3ccc(-c4c(OC)cccc4OC)cc3)C(=O)O)CC2)cc1` [Example 51, N-[Trans-4-(4-methoxyphenylhydrazinocarbonyl)cyclohexane-1-carbonyl]-4-(2,6-dimethoxyphenyl)-L-phenylalanine] cannot be ordered by IC50: no more than 200 nM for the first, no more than 200 nM for the second.
